Experimental findings from patent US10383925B2, “Cancer antigen EEF2” (International Institute of Cancer Immunology, Inc., priority 2009, dated 2019) are described below.

Ends that are not written are not given here.

The first data set has as its system CTL from healthy donors having an HLA-A*0201 molecule. In words: Cytotoxic activity of CTL induced by HLA-A*0201-restricted eEF2 peptides. The data set is classed as cell-based, human. Conditions: PBMC of HLA-A*0201 donors stimulated with peptide; 6th day after the final peptide stimulation. As to the method: From T cell clones established as described above, CD8-positive T cells were purified using CD8 Microbeads to prepare effector cells. Subsequently, target cells were incubated with ^51Cr-labeled sodium chromate (Amersham Biosciences Corp., NJ) for 1 hour to label the cells. They were then mixed with the effector cells so that the ratio of cell count was 1:1, 3:1 and 9:1 of CTL/target cell (E/T) ratio, and the mixture was allowed to stand for 4 hours. The percentage of cells lysed was calculated according to the following equation: Specific lysis %=[(cpm experimental release−cpm spontaneous release)/(cpm maximal release−cpm spontaneous release)]×100. T2-2402 cells pulsed with an eEF2786-794 pep tide were used as the target cells, and T2-2402 cells not pulsed with the eEF2786-794 peptide (SEQ ID NO:7) as a negative control.
The experiments were carried out in much the same way as in the above Example 3. Thus, blood was taken from healthy donors having an HLA-A*0201 molecule, peripheral blood mononuclear cells were separated, and the first stimulation was carried out using the six candidate peptides (stimulator: self-PBMC). Subsequently, the peptide stimulation on the second day and later was carried out at intervals of 8 to 13 days (stimulator: allo B-LCL 3 mg/ml). Furthermore, IL-2 was added every 2 days after the second stimulation at a final concentration of 20 IU/ml. Cytotoxicity was measured on the 6th day after the final peptide stimulation.
In the case of `CC[C@H](C)[C@H](NC(=O)[C@H](Cc1ccc(O)cc1)NC(=O)[C@H](CCSC)NC(=O)[C@H](CCSC)NC(=O)[C@@H](N)CC(C)C)C(=O)N[C@@H](CO)C(=O)N[C@@H](CCCCN)C(=O)N[C@@H](CCSC)C(=O)N[C@H](C(=O)O)C(C)C` [eEF2394-402], the cytotoxic activity result is recorded as “increase of cytotoxic activity was observed”.

In the case of `CC[C@H](C)[C@H](NC(=O)[C@@H]1CCCN1C(=O)[C@H](CC(=O)O)NC(=O)[C@H](CC(C)C)NC(=O)[C@H](CC(C)C)NC(=O)[C@@H](N)CC(C)C)C(=O)N[C@@H](Cc1ccccc1)C(=O)N[C@@H](CCCCN)C(=O)N[C@H](C(=O)O)C(C)C` [eEF2292-300 2L], the cytotoxic activity entry is recorded as “increase cytotoxicity”.

As to `CC(C)C[C@H](NC(=O)[C@H](CCC(N)=O)NC(=O)[C@H](CS)NC(=O)[C@H](Cc1ccccc1)NC(=O)[C@@H](NC(=O)[C@H](CCCNC(=N)N)NC(=O)[C@@H]1CCCN1C(=O)[C@H](CC(C)C)NC(=O)[C@@H](N)CCCCN)[C@@H](C)O)C(=O)O` [eEF2284-292], the cytotoxic activity result is recorded as “increase of cytotoxic activity was observed”.

In the case of `CC[C@H](C)[C@H](NC(=O)[C@@H]1CCCN1C(=O)[C@H](CCC(=O)O)NC(=O)[C@H](CCSC)NC(=O)[C@H](CC(C)C)NC(=O)[C@@H](N)CCCNC(=N)N)C(=O)N[C@@H](Cc1ccc(O)cc1)C(=O)N[C@@H](CC(C)C)C(=O)N[C@H](C(=O)O)C(C)C` [eEF2739-747], the cytotoxic activity result is “increase of cytotoxic activity was observed”.

Regarding `CC(C)C[C@H](NC(=O)[C@H](CCCNC(=N)N)NC(=O)[C@H](CCCCN)NC(=O)[C@H](CC(C)C)NC(=O)CNC(=O)[C@H](CCC(=O)O)NC(=O)[C@@H](NC(=O)[C@H](CC(C)C)NC(=O)[C@@H](N)CCCCN)C(C)C)C(=O)O` [eEF2519-527], the cytotoxic activity entry is “increase of cytotoxic activity was observed”.

With `CC[C@H](C)[C@H](NC(=O)[C@@H]1CCCN1C(=O)[C@H](CC(=O)O)NC(=O)[C@H](CC(C)C)NC(=O)[C@H](CCSC)NC(=O)[C@@H](N)CC(C)C)C(=O)N[C@@H](Cc1ccccc1)C(=O)N[C@@H](CCCCN)C(=O)N[C@@H](CC(C)C)C(=O)O` [eEF2292-300 2M9L], the cytotoxic activity entry is listed as “increase cytotoxicity”.

With `CC[C@H](C)[C@H](NC(=O)[C@@H]1CCCN1C(=O)[C@H](CC(=O)O)NC(=O)[C@H](CC(C)C)NC(=O)[C@H](CCSC)NC(=O)[C@@H](N)CC(C)C)C(=O)N[C@@H](Cc1ccccc1)C(=O)N[C@@H](CCCCN)C(=O)N[C@H](C(=O)O)C(C)C` [eEF2292-300 2M], the cytotoxic activity entry is listed as “increase cytotoxicity”.

For `CC[C@H](C)[C@H](N)C(=O)N[C@@H](CC(C)C)C(=O)N[C@H](C(=O)N[C@@H](CC(=O)O)C(=O)N[C@H](C(=O)N[C@H](C(=O)N[C@@H](CCCCN)C(=O)NCC(=O)N[C@H](C(=O)O)C(C)C)[C@@H](C)O)[C@@H](C)CC)[C@@H](C)O` [eEF2661-669], the cytotoxic activity result is given as “increase of cytotoxic activity was observed”.

Regarding `CC[C@H](C)[C@H](NC(=O)[C@@H]1CCCN1C(=O)[C@H](CC(=O)O)NC(=O)[C@H](CC(C)C)NC(=O)[C@H](CC(C)C)NC(=O)[C@@H](N)CC(C)C)C(=O)N[C@@H](Cc1ccccc1)C(=O)N[C@@H](CCCCN)C(=O)N[C@@H](CC(C)C)C(=O)O` [eEF2292-300 2L9L], the cytotoxic activity entry is “increase cytotoxicity”.

With `CC[C@H](C)[C@H](NC(=O)[C@H](CCC(=O)O)NC(=O)[C@H](CC(N)=O)NC(=O)[C@H](CC(C)C)NC(=O)[C@@H](N)Cc1ccc(O)cc1)C(=O)N[C@@H](CCCCN)C(=O)N[C@@H](CC(=O)O)C(=O)N[C@@H](CO)C(=O)N[C@H](C(=O)O)C(C)C` [eEF2671-679], the cytotoxic activity result is listed as “increase of cytotoxic activity was observed”.

In the next data set the test system is colon cancer SW480 cells. Put plainly: Cytotoxic activity (51Cr release) of peptide-induced CTL against endogenous eEF2 gene-expressing cells. The data set is classed as cell-based. Particulars: SW480 (HLA-A*2402 on surface) vs AZ-521 and MiaPaCa2 (no HLA-A*2402) as negative control.
Consider AYLPVNESF [eEF2786-794], for which the “cytotoxic activity against endogenous eEF2 gene-expressing cells” value was “specifically impair the cells which express the eEF2 and have the HLA-A*2402 molecule”.

A further data set concerns CD8-positive T cells of donors having the HLA-A*0206 molecule. Put plainly: Interferon-γ production, donors having the HLA-A*0206 molecule.
Conditions: not given
The data set is classed as cell-based. As to the method:
(§1) T cells were incubated together with HLA-A*0201 molecule-expressing T2 cells pulsed with HLA-A*0201-restricted eEF2 peptides in the presence of brefeldin A (Sigma) at 37° C. for 5 hours. After washing with PBS, CD3 and CD8 molecules which are cell surface antigens were stained by PerCP-conjugated anti-CD3 (BD Biosciences) and PE-conjugated anti-CD8 (Caltag, Burlingame, Calif.) antibodies on ice for 15 minutes. Subsequently, cells were fixed using Cytofix (BD Biosciences) on ice for 20 minutes, and intracellular IFN-γ was reacted with an FITC-conjugated anti-IFN-γ antibody (BD Biosciences) on ice for 30 minutes. Frequency of IFN-γ-positive cells present in CD8-positive T cells was analyzed using a flow cytometer.
Next, evaluation was carried out as to whether the above 6 peptides and the eEF2292-300 peptide (SEQ ID NO:14) can bind to an HLA-A*0206 molecule and produce interferon-γ. The experiments were carried out in the same way as in the above method, except that donors having the HLA-A*0206 molecule were used.
In the case of “LILDPIFKV (listed as Homo sapiens) [eEF2292-300]”, the “production of interferon-γ” value is “also serve as an HLA-A*0206-restricted peptide”.

The subject of a further data set is CD8-positive T cells. In words: Interferon-γ activity, T cells with peptide-pulsed HLA-A*2402 molecule-expressing T2 cells. The data set is classed as cell-based. Conditions: HLA-A*2402 molecule-expressing T2 cells pulsed with peptide, 5 hours. As to the method: as §1, with “HLA-A*2402” for “HLA-A*0201”, “with” for “with HLA-A*0201-restricted”, “peptides (eEF2409-417, eEF2412-420 and eEF2701-709 peptides)” for “peptides”
Consider AFGRVFSGL [eEF2412-420], for which the “interferon-γ activity (frequency of IFN-γ-positive cells in CD8-positive T cells)” value (“interferon-γ activity” below) is on record as “increase the interferon-γ activity”.

As to “RFYAFGRVF (listed as Homo sapiens) [eEF2409-417]”, the “interferon-γ activity” value is “increase the interferon-γ activity”.

Regarding RFDVHDVTL [eEF2701-709], the “interferon-γ activity” value is “increase the interferon-γ activity”.
